pIC50: −log10 of the molar value.
Experiments:
[1] = tested on: wildtype Wnt signaling cascade; assay: HEK293 TOP assay (Super TopFlash luciferase reporter, Wnt-3a stimulated); format: cell-based; conditions: Homo sapiens, HEK293, 16 h, HEK293 TOP reporter cells, Wnt3a at EC50, 16 hours
Summary of the method: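 Compound series (50 μM down to 15 nM, 3.16-fold) diluted from DMSO 50-fold into CAFTY buffer, pH 7.4, 2 mM Ca^2+, 0.01% BSA, applied to Wnt-3a-stimulated HEK293 TopFlash and FOP reporter lines in parallel. Cells seeded 10000/well 24 h before; luciferase signal measured.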

[2] = tested on: HEK293 cells cotransfected with the FOP control vector; assay: HEK293 FOP assay (control reporter with non-functional TCF elements); format: cell-based; conditions: Homo sapiens, 16 hours
Summary of the method: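 Compound series from 50 μM down to 15 nM, prediluted in DMSO then 50-fold into CAFTY buffer (pH 7.4, 2 mM Ca2+, 0.01% BSA), tested alongside TOP cells on a Geneticin-selected HEK293 FOP line whose TCF elements are replaced by a random sequence; recombinant human Wnt-3a applied at 2500-5 ng/ml.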

[3] = biological target: T1, TNKS1 (Homo sapiens, UniProt O95271); assay: TNKS1 Assay B (auto-parsylation, [3H]-NAD+ SPA); format: biochemical; conditions: 6 nM TNKS1, auto-parsylation, over night at room temperature
T1 construct: purchased BPS Bioscience, San Diego, USA 80579 (TNKS1 Histone Ribosylation Assay Kit)
T1 sequence (O95271 1-1327): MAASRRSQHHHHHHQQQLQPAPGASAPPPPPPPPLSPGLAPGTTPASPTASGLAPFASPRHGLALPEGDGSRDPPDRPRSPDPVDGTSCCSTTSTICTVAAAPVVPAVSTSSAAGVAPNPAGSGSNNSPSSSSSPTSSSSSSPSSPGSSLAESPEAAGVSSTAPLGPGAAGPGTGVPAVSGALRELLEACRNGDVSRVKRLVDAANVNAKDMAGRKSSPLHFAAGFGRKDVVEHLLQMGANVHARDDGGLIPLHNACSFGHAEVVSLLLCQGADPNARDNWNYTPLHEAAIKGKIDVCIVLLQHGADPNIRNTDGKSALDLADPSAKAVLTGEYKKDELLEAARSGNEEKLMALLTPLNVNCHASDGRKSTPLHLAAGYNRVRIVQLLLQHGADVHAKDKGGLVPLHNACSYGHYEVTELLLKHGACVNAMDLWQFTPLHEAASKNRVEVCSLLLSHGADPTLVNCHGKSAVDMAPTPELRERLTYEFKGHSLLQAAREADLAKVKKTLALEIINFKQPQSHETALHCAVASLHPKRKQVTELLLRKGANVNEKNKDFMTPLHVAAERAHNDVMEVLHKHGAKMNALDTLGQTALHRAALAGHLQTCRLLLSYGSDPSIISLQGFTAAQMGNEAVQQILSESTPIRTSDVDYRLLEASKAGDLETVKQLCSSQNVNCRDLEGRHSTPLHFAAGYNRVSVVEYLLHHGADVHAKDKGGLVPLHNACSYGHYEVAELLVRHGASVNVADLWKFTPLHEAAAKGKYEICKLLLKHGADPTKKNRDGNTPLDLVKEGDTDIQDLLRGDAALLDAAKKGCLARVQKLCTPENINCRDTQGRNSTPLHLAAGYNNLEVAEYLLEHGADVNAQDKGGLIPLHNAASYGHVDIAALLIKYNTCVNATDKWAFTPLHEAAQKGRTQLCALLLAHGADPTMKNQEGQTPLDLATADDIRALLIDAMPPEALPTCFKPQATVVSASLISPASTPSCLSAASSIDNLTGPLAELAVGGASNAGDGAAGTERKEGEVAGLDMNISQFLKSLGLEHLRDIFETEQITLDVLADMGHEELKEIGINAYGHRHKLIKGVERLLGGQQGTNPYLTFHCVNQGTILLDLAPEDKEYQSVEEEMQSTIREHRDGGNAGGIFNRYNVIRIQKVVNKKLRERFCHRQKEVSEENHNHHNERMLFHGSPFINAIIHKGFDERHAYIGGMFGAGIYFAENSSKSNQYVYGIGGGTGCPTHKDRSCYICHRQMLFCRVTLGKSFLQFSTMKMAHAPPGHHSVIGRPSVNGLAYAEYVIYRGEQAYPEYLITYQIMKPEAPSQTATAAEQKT
Protocol: The potency of selected compounds according to the invention was assessed applying a modified in vitro inhibition assay. Here, the TNKS1 catalyzed NAD^+-dependent ribosylation of the enzyme itself (auto-parsylation) was detected using [^3H]-NAD^+ as substrate and applying the scintillation proximity assay (SPA) method to detect tritium-labeled, parsylated TNKS1. The intensity of the readout signal is proportional to the incorporated [^3H]-NAD^+. Inhibition of TNKS1 leads to a decreased incorporation of [^3H]-NAD^+ and consequently to a lower readout signal intensity. The concentration of a test compound which inhibits the enzyme activity by 50% (corresponds to half of the normed readout signal intensity) is reported as IC50.
Protocol Auto-Parsylation Assay
The assay was conducted in a 96 well MTP format with the identical TNKS1 enzyme sample and NAD^+ sample as in the histone ribosylation assay with the following modifications: TNKS1 enzyme sample was diluted with a modified assay buffer (50 mM MES pH 7.0, 1 mM DTT, 0.01% Triton X-100) to a final concentration of 6 nM TNKS1 and 10×NAD^+ solution was diluted with the modified assay buffer (s. above) to a final 0.445×NAD^+ solution doped with 100 Bq/μl [^3H]-NAD^+[Catalog #NET443H050UC, Perkin Elmer, Waltham, Mass., USA]. Substrate solution (10 μl) was incubated with different test compound concentrations (2.5 ul in 10% DMSO in modified assay buffer) or control (2.5 ul 10% DMSO in modified assay buffer only) and enzyme (10 μl) over night at room temperature. Incorporated tritium was measured after addition of 50 μl SPA beads (1 mg/ml) [Catalog #RPNQ0095 20 mg/ml, Perkin Elmer, Waltham, Mass., USA; diluted 1:10 with Dulbecco's phosphate buffered saline, PBS Catalog #D8537, Sigma-Aldrich, Steinheim, Germany] and detection of the photon emission with a beta count plate reader [Wallac MicroBeta®, Perkin Elmer, Waltham, Mass., USA].

[4] = biological target: T2, TNKS2 (Homo sapiens, UniProt Q9H2K2); assay: TNKS2 Assay B (auto-parsylation, [3H]-NAD+ SPA); format: biochemical; conditions: 6 nM TNKS2, auto-parsylation, over night at room temperature
T2 construct: purchased BPS Bioscience, San Diego, USA 80572 (TNKS2 Histone Ribosylation Assay Kit)
T2 sequence (Q9H2K2 1-1166): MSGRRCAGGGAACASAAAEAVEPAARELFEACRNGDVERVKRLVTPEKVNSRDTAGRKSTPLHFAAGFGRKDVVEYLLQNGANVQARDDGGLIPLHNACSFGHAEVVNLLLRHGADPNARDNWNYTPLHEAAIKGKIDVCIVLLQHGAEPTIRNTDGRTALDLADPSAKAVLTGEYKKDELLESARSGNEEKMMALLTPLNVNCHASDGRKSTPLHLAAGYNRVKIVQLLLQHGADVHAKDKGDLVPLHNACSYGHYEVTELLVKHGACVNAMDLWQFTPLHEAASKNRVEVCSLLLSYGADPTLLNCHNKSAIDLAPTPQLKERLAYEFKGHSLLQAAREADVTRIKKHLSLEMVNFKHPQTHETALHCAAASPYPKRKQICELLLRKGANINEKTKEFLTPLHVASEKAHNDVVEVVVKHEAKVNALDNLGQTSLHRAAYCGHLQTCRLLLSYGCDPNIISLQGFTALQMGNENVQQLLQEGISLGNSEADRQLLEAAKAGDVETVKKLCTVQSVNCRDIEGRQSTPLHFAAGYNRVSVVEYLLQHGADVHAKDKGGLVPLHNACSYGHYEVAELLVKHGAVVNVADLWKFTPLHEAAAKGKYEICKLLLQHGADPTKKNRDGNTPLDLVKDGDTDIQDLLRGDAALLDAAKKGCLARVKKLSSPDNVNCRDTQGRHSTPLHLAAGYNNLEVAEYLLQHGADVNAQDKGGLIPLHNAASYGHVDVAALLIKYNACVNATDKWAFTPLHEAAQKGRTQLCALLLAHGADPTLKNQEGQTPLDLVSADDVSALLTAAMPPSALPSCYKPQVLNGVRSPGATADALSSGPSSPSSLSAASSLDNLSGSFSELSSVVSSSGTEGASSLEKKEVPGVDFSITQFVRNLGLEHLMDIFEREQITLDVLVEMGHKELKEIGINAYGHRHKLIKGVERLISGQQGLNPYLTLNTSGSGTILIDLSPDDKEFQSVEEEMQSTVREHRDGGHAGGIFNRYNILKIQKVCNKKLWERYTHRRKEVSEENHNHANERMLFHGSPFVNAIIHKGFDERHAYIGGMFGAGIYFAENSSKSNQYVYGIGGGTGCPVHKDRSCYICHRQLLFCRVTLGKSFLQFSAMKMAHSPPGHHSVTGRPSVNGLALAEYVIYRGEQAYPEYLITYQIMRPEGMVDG

| pIC50 [1] | pIC50 [3] | pIC50 [4] | SMILES | pIC50 [2] |
| --- | --- | --- | --- | --- |
| 5.49 | < 5.00 |  | O=C(N[C@H]1CC[C@H](C(=O)Nc2cc(N3CCOCC3)ccc2Cl)CC1)c1[nH]cnc1C(=O)N1CC(F)(F)C1 [Example 92, N-(trans-4-{[2-chloro-5-(morpholin-4-yl)phenyl]carbamoyl}cyclohexyl)-4-[(3,3-difluoroazetidin-1-yl)carbonyl]-1H-imidazole-5-carboxamide] | 4.68 |
| 7.64 |  | 7.00 | O=C(N[C@H]1CC[C@@]2(CCCN(c3ccc(F)cc3Cl)C2=O)CC1)c1cnn2cccnc12 [Example 325, N-[(trans)-2-(2-chloro-4-fluorophenyl)-1-oxo-2-azaspiro[5.5]undec-9-yl]pyrazolo[1,5-a]pyrimidine-3-carboxamide] | ≤ 4.30 |

Reference: patent US20180148418A1, “AMIDO-SUBSTITUTED CYCLOHEXANE DERIVATIVES” (Bayer Pharma Aktiengesellschaft, priority 2015, published 2018)
